Here are results for two compounds from patent US8835125B2, “Methods and compositions for selective labeling of different biotinylated targets within multicolor or multilabel assays” (Affymetrix, Inc., priority 2011, dated 2014).

For experiment [1], the target named is T1, SAPE (Streptomyces avidinii, UniProt P22629). In words: stability of DMT protected biotin against SAPE staining after 3 hour ligation (FIG. 13). As to conditions: array probes after 3 hours ligation reaction, no acid treatment.
Another experiment concerns the target streptavidin (Streptomyces avidinii, UniProt P22629). The note with it: association constant; cited from earlier work.
The target of experiment [2] is T1, SAPE. In words: displacement of SAPE from desthiobiotin by biotin solution and re-staining (FIG. 15). The format is binding. The note with it: 1 mM biotin solution, then restaining with SAPE. On the procedure:
The next step was to displace the streptavidin-phycoerythrin conjugate bound to the desthiobiotin of the ligated A/T probes. This was done by washing the array with solution biotin (1 mM) in NaCl (150 mM) for 4 hours at room temperature. The displaced streptavidin-phycoerythrin conjugate previous bound to the desthiobiotinylated probes was then removed.
FIGS. 15(A)-15(C) contain images of sub-regions with sets of probes to test the effectiveness of binding and displacement of desthiobiotin with biotin. Specifically, the probe sets within the images are ligated with desthiobiotin labeled probes. […] Washing was also performed to remove the displaced biotin-SAPE conjugate. FIG. 15(C) contains an image after subsequent restraining with SAPE.

Sequence of streptavidin (P22629 25-183, species assumed): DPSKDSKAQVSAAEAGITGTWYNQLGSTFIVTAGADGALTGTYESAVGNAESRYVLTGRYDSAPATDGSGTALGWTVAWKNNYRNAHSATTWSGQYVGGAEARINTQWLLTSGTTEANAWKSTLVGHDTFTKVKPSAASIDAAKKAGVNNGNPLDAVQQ
T1 sequence (P22629 25-183): as the sequence (P22629 25-183, species assumed) above

As to `O=C(O)CCCC[C@@H]1SC[C@@H]2NC(=O)N[C@@H]21` [biotin], the “intensity after SAPE staining” value on SAPE [1] is “extremely strong”. Moreover, on streptavidin, the “binding affinity with streptavidin” value was 1e+15 M⁻¹.
Take `C[C@@H]1NC(=O)N[C@@H]1CCCCCC(=O)O` [desthiobiotin]: at streptavidin, the “binding affinity with streptavidin” value was 5e+13 M⁻¹. In addition, the “displacement of SAPE stain and re-staining” value at SAPE [2] is “effectively displace and remove a labeling stain from desthiobiotin”.
